Measurements: US20230139171A1 (SITA Information Networking Computing UK Limited, priority 2019, published 2023)
pIC50: −log10 of the molar value.

Assays:
Format in all cases: cell-based
human TLR7 = target: T1, human TLR7 (Homo sapiens, UniProt Q9NYK1); test: TLR7 inhibition reporter assay (HEK-Blue cells, SEAP reporter, gardiquimod stimulation); conditions: HEK-Blue cells overexpressing human TLR7, SEAP reporter, gardiquimod 7.5 μM; read-out: TLR7 IC50
T1 construct: host or cells: HEK-Blue cells
T1 sequence (Q9NYK1 27-1049): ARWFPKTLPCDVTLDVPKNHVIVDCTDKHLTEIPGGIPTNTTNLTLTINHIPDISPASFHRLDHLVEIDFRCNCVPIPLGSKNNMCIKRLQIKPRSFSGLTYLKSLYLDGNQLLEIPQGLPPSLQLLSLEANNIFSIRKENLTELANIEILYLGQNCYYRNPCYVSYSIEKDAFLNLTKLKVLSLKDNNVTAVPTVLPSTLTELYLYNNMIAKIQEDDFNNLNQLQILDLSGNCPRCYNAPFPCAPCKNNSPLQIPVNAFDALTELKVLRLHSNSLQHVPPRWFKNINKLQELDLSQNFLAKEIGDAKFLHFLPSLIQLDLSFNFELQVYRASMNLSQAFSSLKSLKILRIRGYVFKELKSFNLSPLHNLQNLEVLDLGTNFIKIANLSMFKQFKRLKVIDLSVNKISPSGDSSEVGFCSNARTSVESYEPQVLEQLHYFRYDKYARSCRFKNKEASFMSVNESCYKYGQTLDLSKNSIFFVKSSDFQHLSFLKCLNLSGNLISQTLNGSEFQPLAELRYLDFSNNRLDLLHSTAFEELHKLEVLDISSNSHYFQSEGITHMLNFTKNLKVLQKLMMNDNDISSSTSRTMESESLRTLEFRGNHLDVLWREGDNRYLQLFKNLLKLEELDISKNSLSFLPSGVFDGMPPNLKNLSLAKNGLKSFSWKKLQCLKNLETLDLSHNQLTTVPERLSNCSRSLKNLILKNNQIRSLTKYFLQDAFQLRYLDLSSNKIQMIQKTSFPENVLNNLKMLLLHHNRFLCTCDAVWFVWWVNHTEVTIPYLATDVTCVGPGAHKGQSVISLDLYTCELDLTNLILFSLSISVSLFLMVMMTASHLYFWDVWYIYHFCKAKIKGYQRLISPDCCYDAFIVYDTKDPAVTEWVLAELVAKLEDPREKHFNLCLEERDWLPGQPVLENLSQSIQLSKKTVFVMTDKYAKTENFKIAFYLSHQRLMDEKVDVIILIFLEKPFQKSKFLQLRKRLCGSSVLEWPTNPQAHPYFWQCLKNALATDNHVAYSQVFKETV
Method in brief: (§1)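 HEK-Blue cells overexpressing human TLR7, TLR8 or TLR9 carry a SEAP reporter driven by NF-κB/AP-1 sites. Compounds (0.05 nM–50 μM) were preincubated 30 min at room temperature, then cells were stimulated with gardiquimod 7.5 μM (TLR7), R848 15.9 μM (TLR8) or ODN2006 5 nM (TLR9) for 22 h at 37 °C.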

human TLR8 = target: T2, human TLR8 (Homo sapiens, UniProt Q9NR97); test: TLR8 inhibition reporter assay (HEK-Blue cells, SEAP reporter, R848 stimulation); conditions: HEK-Blue cells overexpressing human TLR8, SEAP reporter, R848 15.9 μM; read-out: TLR8 IC50
T2 construct: host or cells: HEK-Blue cells
T2 sequence (Q9NR97 27-1041): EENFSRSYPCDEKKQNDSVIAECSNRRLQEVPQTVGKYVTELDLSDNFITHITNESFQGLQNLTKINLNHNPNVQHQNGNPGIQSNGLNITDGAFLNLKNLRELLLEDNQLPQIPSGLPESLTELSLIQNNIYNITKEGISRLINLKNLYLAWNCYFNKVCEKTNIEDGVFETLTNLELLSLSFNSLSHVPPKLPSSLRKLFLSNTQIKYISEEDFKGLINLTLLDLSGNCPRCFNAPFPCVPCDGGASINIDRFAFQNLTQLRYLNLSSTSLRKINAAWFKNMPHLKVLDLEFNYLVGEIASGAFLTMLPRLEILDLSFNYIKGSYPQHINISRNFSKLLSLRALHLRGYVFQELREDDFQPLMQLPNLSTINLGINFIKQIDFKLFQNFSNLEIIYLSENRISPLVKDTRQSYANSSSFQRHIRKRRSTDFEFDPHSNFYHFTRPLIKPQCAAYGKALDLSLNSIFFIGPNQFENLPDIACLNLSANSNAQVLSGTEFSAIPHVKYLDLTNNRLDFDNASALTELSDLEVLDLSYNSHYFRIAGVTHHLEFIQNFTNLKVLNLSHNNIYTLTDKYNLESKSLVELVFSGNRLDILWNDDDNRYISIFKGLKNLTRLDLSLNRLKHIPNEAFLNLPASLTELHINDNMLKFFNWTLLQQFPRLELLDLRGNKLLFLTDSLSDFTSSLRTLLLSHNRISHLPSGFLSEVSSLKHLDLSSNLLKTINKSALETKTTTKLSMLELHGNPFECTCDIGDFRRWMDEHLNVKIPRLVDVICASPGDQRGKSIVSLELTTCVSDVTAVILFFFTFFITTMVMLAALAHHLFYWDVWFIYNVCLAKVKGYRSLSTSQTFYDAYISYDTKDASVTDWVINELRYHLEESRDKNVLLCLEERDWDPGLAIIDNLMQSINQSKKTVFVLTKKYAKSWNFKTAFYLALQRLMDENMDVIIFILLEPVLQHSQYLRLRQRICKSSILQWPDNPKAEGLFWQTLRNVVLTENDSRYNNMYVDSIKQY
Method in brief: as §1

human TLR9 = target: T3, human TLR9 (Homo sapiens, UniProt Q9NR96); test: TLR9 inhibition reporter assay (HEK-Blue cells, SEAP reporter, ODN2006 stimulation); conditions: HEK-Blue cells overexpressing human TLR9, SEAP reporter, ODN2006 5 nM
T3 construct: host or cells: HEK-Blue cells
T3 sequence (Q9NR96 26-1032): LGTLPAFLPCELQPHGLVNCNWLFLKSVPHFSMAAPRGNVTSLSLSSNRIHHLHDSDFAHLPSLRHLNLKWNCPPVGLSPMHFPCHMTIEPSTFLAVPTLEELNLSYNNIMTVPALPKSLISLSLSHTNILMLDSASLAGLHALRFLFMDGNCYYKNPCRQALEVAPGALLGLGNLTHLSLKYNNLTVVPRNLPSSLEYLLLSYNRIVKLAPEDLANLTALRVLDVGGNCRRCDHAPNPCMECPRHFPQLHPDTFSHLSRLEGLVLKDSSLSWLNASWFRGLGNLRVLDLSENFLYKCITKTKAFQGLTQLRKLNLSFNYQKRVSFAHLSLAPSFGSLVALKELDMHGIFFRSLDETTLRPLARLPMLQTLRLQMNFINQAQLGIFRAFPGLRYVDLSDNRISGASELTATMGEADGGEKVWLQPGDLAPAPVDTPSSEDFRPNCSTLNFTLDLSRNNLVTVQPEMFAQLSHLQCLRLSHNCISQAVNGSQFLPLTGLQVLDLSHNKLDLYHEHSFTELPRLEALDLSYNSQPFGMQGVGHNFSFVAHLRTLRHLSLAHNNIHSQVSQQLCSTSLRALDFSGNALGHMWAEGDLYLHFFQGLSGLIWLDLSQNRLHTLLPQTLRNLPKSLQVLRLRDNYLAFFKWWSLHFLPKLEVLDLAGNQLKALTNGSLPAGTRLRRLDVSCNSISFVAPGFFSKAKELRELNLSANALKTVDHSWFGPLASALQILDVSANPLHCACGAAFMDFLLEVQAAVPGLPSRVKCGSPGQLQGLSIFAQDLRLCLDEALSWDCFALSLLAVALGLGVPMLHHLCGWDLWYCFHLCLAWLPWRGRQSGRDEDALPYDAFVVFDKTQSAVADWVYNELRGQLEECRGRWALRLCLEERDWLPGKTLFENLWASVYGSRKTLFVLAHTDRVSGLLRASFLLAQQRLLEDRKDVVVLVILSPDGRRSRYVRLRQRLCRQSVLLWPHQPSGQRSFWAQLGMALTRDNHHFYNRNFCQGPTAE
Method in brief: as §1

SMILES	pIC50 (human TLR7)	pIC50 (human TLR8)	pIC50 (human TLR9)
COc1cc(-c2[nH]c3sc(C4CCN(CC(=O)N(C)C)CC4)nc3c2C(C)C)cn2ncnc12 [Example 7, 2-(4-(6-isopropyl-5-(8-methoxy-[1,2,4]triazolo[1,5-a]pyridin-6-yl)-4H-pyrrolo[3,2-d]thiazol-2-yl)piperidin-1-yl)-N,N-dimethylacetamide]	8.11	8.18	5.26
CNC(=O)CN1CCC(c2nc3c(C(C)C)c(-c4cc(OC)c5ncnn5c4)[nH]c3s2)CC1 [Example 8, 2-(4-(6-isopropyl-5-(8-methoxy-[1,2,4]triazolo[1,5-a]pyridin-6-yl)-4H-pyrrolo[3,2-d]thiazol-2-yl)piperidin-1-yl)-N-methylacetamide]	8.61	8.27	4.51
COc1cc(-c2[nH]c3sc(C4CCN(C(C)C)CC4)nc3c2C(C)C)cn2ncnc12 [Example 10, 6-isopropyl-2-(1-isopropylpiperidin-4-yl)-5-(8-methoxy-[1,2,4]triazolo[1,5-a]pyridin-6-yl)-4H-pyrrolo[3,2-d]thiazole]	8.86	8.72	5.88
COc1cc(-c2[nH]c3sc(C4CCN(CC(C)(C)C)CC4)nc3c2C(C)C)cn2ncnc12 [Example 13, 6-isopropyl-5-(8-methoxy-[1,2,4]triazolo[1,5-a]pyridin-6-yl)-2-(1-neopentylpiperidin-4-yl)-4H-pyrrolo[3,2-d]thiazole]	8.30	8.69	5.48
COc1cc(-c2[nH]c3sc(C4CCN(CC(C)(C)O)CC4)nc3c2C(C)C)cn2ncnc12 [Example 15, 1-(4-(6-isopropyl-5-(8-methoxy-[1,2,4]triazolo[1,5-a]pyridin-6-yl)-4H-pyrrolo[3,2-d]thiazol-2-yl)piperidin-1-yl)-2-methylpropan-2-ol]	8.38	8.50	5.11
COc1cc(-c2[nH]c3sc(C4CCN(CCS(C)(=O)=O)CC4)nc3c2C(C)C)cn2ncnc12 [Example 16, 6-isopropyl-5-(8-methoxy-[1,2,4]triazolo[1,5-a]pyridin-6-yl)-2-(1-(2-(methylsulfonyl)ethyl)piperidin-4-yl)-4H-pyrrolo[3,2-d]thiazole]	8.51	8.56	4.36
Cc1cc(-c2[nH]c3sc(C4CCN(CC(=O)N(C)C)CC4)nc3c2C(C)C)cn2ncnc12 [Example 17, 2-(4-(6-isopropyl-5-(8-methyl-[1,2,4]triazolo[1,5-a]pyridin-6-yl)-4H-pyrrolo[3,2-d]thiazol-2-yl)piperidin-1-yl)-N,N-dimethylacetamide]	8.09	8.08	5.46
Cc1cc(-c2[nH]c3sc(C4CCN(CC(C)(C)O)CC4)nc3c2C(C)C)cn2ncnc12 [Example 18, 1-(4-(6-isopropyl-5-(8-methyl-[1,2,4]triazolo[1,5-a]pyridin-6-yl)-4H-pyrrolo[3,2-d]thiazol-2-yl)piperidin-1-yl)-2-methylpropan-2-ol]	8.24	8.59	5.43
Cc1cc(-c2[nH]c3sc(C4CCN(C(=O)CN(C)C)CC4)nc3c2C(C)C)cn2ncnc12 [Example 19, 2-(dimethylamino)-1-(4-(6-isopropyl-5-(8-methyl-[1,2,4]triazolo[1,5-a]pyridin-6-yl)-4H-pyrrolo[3,2-d]thiazol-2-yl)piperidin-1-yl)ethan-1-one]	8.85	7.92	5.23

Other lines, results leading:

pIC50 (human TLR7)	pIC50 (human TLR8)	pIC50 (human TLR9)	SMILES
8.42	8.03	4.73	COc1cc(-c2[nH]c3sc(C4CCN(C5COC5)CC4)nc3c2C(C)C)cn2ncnc12 [Example 11, 6-isopropyl-5-(8-methoxy-[1,2,4]triazolo[1,5-a]pyridin-6-yl)-2-(1-(oxetan-3-yl)piperidin-4-yl)-4H-pyrrolo[3,2-d]thiazole]
8.80	9.07	5.67	COc1cc(-c2[nH]c3sc(C4CCN(C5CCOCC5)CC4)nc3c2C(C)C)cn2ncnc12 [Example 12, 6-isopropyl-5-(8-methoxy-[1,2,4]triazolo[1,5-a]pyridin-6-yl)-2-(1-(tetrahydro-2H-pyran-4-yl)piperidin-4-yl)-4H-pyrrolo[3,2-d]thiazole]
8.72	9.03	5.42	COc1cc(-c2[nH]c3sc(C4CCN(CC5(C)COC5)CC4)nc3c2C(C)C)cn2ncnc12 [Example 14, 6-isopropyl-5-(8-methoxy-[1,2,4]triazolo[1,5-a]pyridin-6-yl)-2-(1-((3-methyloxetan-3-yl)methyl)piperidin-4-yl)-4H-pyrrolo[3,2-d]thiazole]
8.43	8.09	4.79	Cc1cc(-c2[nH]c3sc(C4CCN(C5COC5)CC4)nc3c2C(C)C)cn2ncnc12 [Example 20, 6-isopropyl-5-(8-methyl-[1,2,4]triazolo[1,5-a]pyridin-6-yl)-2-(1-(oxetan-3-yl)piperidin-4-yl)-4H-pyrrolo[3,2-d]thiazole]
